We go through three compounds from article PMC3214651 (Antiviral research, 2009).

One data set deals with WNV. Particulars: ref Zou et al., 2008; cited from earlier work.
The next data set deals with WNV NTPase (NS3) (West Nile virus, UniProt Q9Q6P4). The experiment in a line: NTPase assay. As to conditions: 1 µM, control compound. It counts as biochemical.
For another data set, the target named is WNV protease (NS2b-NS3) (West Nile virus, UniProt Q9Q6P4). The experiment in a line: Protease assay. As to conditions: 25 µM, control compound.

In general, EC50 refers to the midpoint of the concentration-response curve. Take `O[C@H]1[C@H]2c3cc4c(cc3CN3CCC(=C[C@@H]1O)[C@H]23)OCO4` [lycorine]: in the data set on WNV, the EC50 is 230 nM and the TI was 104.
For the compound `Nc1nc2c(ncn2[C@@H]2O[C@H](COP(=O)(O)OP(=O)(O)OP(=O)(O)O)[C@@H](O)[C@H]2O)c(=O)[nH]1` [nonradioactive GTP, GTP], the “suppression of NTPase activity” value on WNV NTPase (NS3) is recorded as above 85%.
As for aprotinin, the “suppression of protease activity” value in the data set with WNV protease (NS2b-NS3) is above 85%.
